Literature values, collected in patent publication US20090162442A1, “MULTI-PHASIC, NANO-STRUCTURED COMPOSITIONS CONTAINING A COMBINATION OF A FIBRATE AND A STATIN” (priority 2007, published 2009).

[1] = American Family Physician, 2002, Vol. 65, No. 6, page 1173

## CC(C)n1c(/C=C/C(O)CC(O)CC(=O)O)c(-c2ccc(F)cc2)c2ccccc21 (centres unmarked) [fluvastatin]
[1]
  absorbed (rate of absorption): 98%
  bioavailable: approximately 24%
  bioavailability under fed conditions (food interaction): decrease

## CC[C@H](C)C(=O)O[C@H]1C[C@@H](C)C=C2C=C[C@H](C)[C@H](CC[C@@H]3C[C@@H](O)CC(=O)O3)[C@H]21 [lovastatin]
[1]
  absorbed (rate of absorption): about 30%

## CC[C@H](C)C(=O)O[C@H]1C[C@H](O)C=C2C=C[C@H](C)[C@H](CC[C@@H](O)C[C@@H](O)CC(=O)O)[C@H]21 [pravastatin]
  bioavailability under fed conditions (food interaction): decrease
